Test results published in patent US7105550B2, “2,4-disubstituted thiazolyl derivatives” (priority 2000, dated 2006).

Key:
IL-12 production = assay: In vitro inhibition of IL-12 production in human blood; format: cell-based; settings: human whole blood, lipopolysaccharide 100 ng/ml, 24 hours
Experimental: (§1) Human Whole Blood Stimulation
(§2) Peripheral blood from healthy male donors was drawn into heparinized syringes (12.5 U heparin/ml). Blood samples were three-fold diluted in RMPI 1640 medium (Life Technologies, Belgium) supplemented with 2 mM L-glutamine, 100 U/ml penicillin and 100 μg/ml streptomycin, and 300 μl fractions were distributed in 24-well multidisc plates (Nunc, Roskilde, Denmark). Blood samples were preincubated (60 minutes at 37° C.) in a humidified 6% CO2-atmosphere with 100 μl of drug solvent (final concentration 0.02% dimethylsulfoxide in RPMI 1640) or with 100 μl of an appropriate dose of test compound before being stimulated by the addition of 100 μl of lipopolysaccharide at a final concentration of 100 ng/ml. After 24 hours, cell-free supernatant fluids were collected by centrifugation and stored at −20° C. until tested for the presence of IL-12.
(§3) Cytokine protein concentrations were determined by sandwich ELISA as described in Van Wauwe et al. (1996, Inflamm Res, 45, 357–363). Murine monoclonals used as capture antibodies to human cytokines were obtained from R&D Systems (Abingdon, United Kingdom) and code named MAB210 and MAB611 for TNF-α and IL-12 respectively. Butinylated goat polyclonal antibodies used to detect human cytokines were from R&D Systems (BAF210, BAF219). Cytokine levels were calculated from standard curves using recombinant cytokines supplied by R&D Systems.

TNF-α production = assay: In vitro inhibition of TNF-α production in human blood; format: cell-based; settings: human whole blood, lipopolysaccharide stimulation
Experimental: as §1
as §2, with “with 100 A1 of drug” for “with 100 μl of drug”, “ng/ml. After 6 hours, cell-free” for “ng/ml. After 24 hours, cell-free”, “presence of TNF-α.” for “presence of IL-12.”
as §3

Compound	% inhib. IL-12 (p40) (IL-12 production; test dose 1 × 10^−6 M) [%]	% inhib. IL-12 (p40) (IL-12 production; test dose 1 × 10^−7 M) [%]	% inhib. TNF-α (TNF-α production; test dose 1 × 10^−6 M) [%]	% inhib. TNF-α (TNF-α production; test dose 1 × 10^−7 M) [%]
Cl.Clc1cccc(Nc2nc(-c3cnc4sccn34)cs2)c1Cl [compound 551]	71	71	44	40
Cc1cccc(Nc2nc(-c3cnc4ccccn34)cs2)c1.Cl [Compound 31]	66	68	55	49
Br.FC(F)(F)c1cccc(Nc2nc(-c3cnc4ccccn34)cs2)c1 [Compound 81]	65	67	51	47
Br.COc1ccc(Nc2nc(-c3cnc4ccccn34)cs2)cc1 [Compound 74]	70	67	56	48
Cl.FC(F)(F)c1cncc(Nc2nc(-c3cnc4ccccn34)cs2)c1 [compound 584]	75	68	53	49
COc1ccc(Nc2nc(-c3cnc4ccccn34)cs2)cn1 [compound 573]	67	61	53	45
Cl.FC(F)(F)c1cccc(Nc2nc(-c3ccoc3)cs2)c1 [compound 518]	62	59	38	44
Cc1ccc(Nc2nc(-c3cnc4ccccn34)cs2)cc1.Cl [Compound 39]	64	71	53	59
Br.FC(F)(F)c1cccc(Nc2nc(-c3cnc4ccccc4c3)cs2)c1.O [compound 100]	53	51	43	41
Cc1ccc(Nc2nc(-c3cnc4ccccn34)cs2)cn1.Cl.Cl.O.O [compound 577]	77	71	50	49
Cl.c1ccc(Nc2nc(-c3c[nH]c4ccccc34)cs2)cc1 [Compound 9]	49	53	37	39
Cl.Cl.Clc1cccc(Nc2nc(-c3c[nH]c4ncccc34)cs2)c1Cl [Compound 166]	62	55	48	37
Br.Cc1ccc(Nc2nc(-c3cnc4ncccn34)cs2)cc1Cl [compound 286]	60	63	50	48
Cl.c1ccn2c(-c3csc(Nc4ccc5ncsc5c4)n3)cnc2c1 [compound 587]	79	75	56	56
Cl.c1ccn2c(-c3csc(Nc4ccc5c(c4)CCO5)n3)cnc2c1 [compound 579]	72	75	49	50
Br.Cc1ncc(-c2csc(Nc3ccc(Cl)nc3)n2)n1C [Compound 527]	61	66	37	43
Cl.Clc1cccc(Nc2nc(-c3cnc4ccccn34)cs2)c1Cl.O [Compound 45]	64	65	49	48
Brc1cccc(Nc2nc(-c3cnc4ccccn34)cs2)c1 [Compound 466]	95	86	57	49
Cl.FC(F)(F)c1cccc(Nc2nc(-c3cnc4sccn34)cs2)c1 [compound 549]	74	71	50	47
Cc1ccc(Nc2nc(-c3cnc4ccccn34)cs2)cc1Cl.Cl [Compound 476]	75	71	58	53
Br.Cc1cccc(Nc2nc(-c3cnn4ccccc34)cs2)c1 [compound 119]	62	62	49	49
Cl.Fc1cccc(-c2csc(Nc3cccc(C(F)(F)F)c3)n2)c1 [Compound 643]	75	72	64	59
Brc1ccc(Nc2nc(-c3cnc4ccccn34)cs2)cc1.Cl [Compound 509]	64	68	46	54
FC(F)(F)c1cccc(Nc2nc(-c3cncnc3)cs2)c1 [compound 517]	74	68	61	57
Cl.Clc1cccc(Nc2nc(-c3ncc4ccccn34)cs2)c1Cl [compound 410]	53	58	39	43
Br.Cc1cccc(Nc2nc(-c3cnc4cnccn34)cs2)c1.O [compound 115]	75	67	58	53
Br.FC(F)(F)c1cccc(Nc2nc(-c3cccnc3)cs2)c1 [compound 101]	62	65	54	53
